Earlier results on 1 compound are cited in patent US20110218104A1, “Biodiesel Solvents in Pesticide Compositions” (AUBURN UNIVERSITY, priority 2010, published 2011).

Each structure is given as a SMILES string.

For the series the following is noted: Merck Index, 1989.

On to `NC(N)=O` [urea], for which the solubility in glycerin result is listed as “considerable solubility”.
